Source: US12303891B2, “Emulating vascular cellular physiologies” (CALIFORNIA NORTHSTATE COLLEGE OF PHARMACY, LLC, priority 2021, dated 2025)
Entries after “also recorded” stand apart in the source; their conditions may differ.

Assays:
PAH patients [1] = conditions: female vs male PAH patients (p=0.3); cited from earlier work
[2] = tested on: PAH-ECs/SMCs/ADCs of male and female patients; test: PAH chip, sex-specific therapeutic response to bosentan; format: cell-based, human
Experimental: As reported in our recent publication, we first characterized the cells for various markers and seeded control and PAH cells on the respective channels of the chips at a density of 2×10^6 cells/mL of adventitial cells (ADCs) or SMCs and 5˜10×10^6 cells/mL of ECs. SMCs were seeded in rat tail type I collagen solution (Corning Inc., NY). We fed the cells with the media via the two outermost channels. In experiment when chips were seeded with three different cell types, we first instilled collagen (2 mg/mL) alone or SMC mixed with collagen into the medial channel and allowed 20 minutes for collagen to form gel and then seeded ECs and ADCs 20 minutes apart. The cell-laden chips thus prepared were placed in a humidified chamber and let them grow in a CO2 incubator for 5-8 days. Each day, the medium was removed and replaced with 150 μL fresh media.
(§1) Into chips prepared by seeding PAH-ECs/SMCs/ADCs of male and female patients, we infused 50 µM bosentan starting from day 4 of cell seeding and continued the infusion for an additional 3 days. To determine whether the drug had any preventive effects, we treated the cell-laden chips with 50 µM bosentan on day 1 of seeding and let the cells grow for 6 more days with no treatment. For studying the influence of growth hormones and anti-PAH drug on cellular functions and remodeling, we seeded male and female PAH-ECs, QD705-labeled or unlabeled PAH-SMCs and PAH-ADCs. We assessed the deposition of human ColT1, expression of aromatase (an enzyme that synthesizes estrogen) and CYP1B1 (an estrogen-metabolizing enzyme) and then measured arterial remodeling and muscularization.
For assessing the effect of the drug pulmonary arterial thickening, we assumed that ECs and SMCs grow in their respective channels, the intimal and medial layers of the chip, not outside their assigned layers. If ECs or SMCs grow outside their original seeding channels, we considered out-of-designated channel growth as intimal or medial layer thickening, respectively. We also considered the migration of SMCs from the medial to intimal as muscularization and that the number of SMCs that grow in the intimal layers is the degree of muscularization. These assumptions were based on PAH pathology whereby non-muscularized distal arteries/arterioles become muscularized and show SM-like cells from preexisting SMCs. We used phase contrast microscopy, immunostaining, and quantum dot labeling to draw line between the growth zones of different cells and for counting and identifying cells.
For demarcating boundaries of different cell growth areas, we first imaged the chips using a phase-contrast microscope and then stained the cells for imaging using a confocal microscope. For calculating the extent of intimal and medial thickening, we calculated the average of the lengths of five to seven diametrically uneven points of the same layer. To determine the degree of muscularization, we grew QD-labeled N-SMC/PAH-SMCs on the chip and stained the chips for FSP-1 and CD31 antibodies and counted the number of FSP-1+CD31− or QD-labeled SMCs in all three layers of the chip.

PAH patients [3] = test: Responsiveness of female and male PAH patients to anti-PAH drugs; format: in vivo, human; conditions: for responsiveness of female PAH patients: 'we have found'
CMs and PAH-ECs = test: PAH-RVH chip prepared with CMs and PAH-ECs, efficacy of anti-PAH drugs; format: cell-based, human; conditions: chips prepared with CMs and PAH-ECs
Source text: The modified chip device can be used, for example, for growing both cardiomyocytes (CMs) in the study of cardiovascular disease, and pulmonary arterial endothelial cells (ECs) in the study of pulmonary vascular diseases. The pulmonary arterial ECs, for example, can be collected from the pulmonary arteries of healthy donors (N-ECs) and that of PAH patients (PAH-ECs). We have seen that PAH is an example of a disease that can benefit from improved treatments developed with the systems and methods taught herein. Through the growing of CMs and either N-ECs or PAH-ECs in respective compartments or channels, for example, we can measure the influence PAH-ECs on CMs by measuring various soluble cellular markers, assessing the contractility of CMs, evaluating the expression of genes by CMs, and study the influence of anti-PAH PAH drugs on the release of hypertrophy inducing agents and hypertrophic markers and CM contractility.
We developed a drug therapy using the systems and methods. We used two anti-PAH drugs, sildenafil and bosentan, on chips prepared with CMs and PAH-ECs, the drug reduced the extent of CM hypertrophy, improved the contractility, and reduced both hypertrophy-inducing agents and hypertrophic markers. From our study, one of skill will understand that the systems and methods can identify the interactions between PAH-afflicted ECs and CMs and assess the efficacy of anti-PAH drugs in ameliorating pulmonary arterial hypertension right ventricular hypertrophy (PAH-RVH).

[4] = tested on: PACs of female patients and male patients; test: Chips with PACs of female and male PAH patients treated with estrogen and growth factor; format: cell-based, human
Experimental: as §1
For assessing the effect of the drug pulmonary arterial thickening, we assumed that ECs and SMCs grow in their respective channels, the intimal and medial layers of the chip, not outside their assigned layers. If ECs or SMCs grow outside their original seeding channels, we considered out-of-designated channel growth as intimal or medial layer thickening, respectively. We also considered the migration of SMCs from the medial to intimal as muscularization and that the number of SMCs that grow in the intimal layers is the degree of muscularization. […]

[5] = bosentan-treated female vs male chips
[6] = early treatment, female chips compared with male counterparts
[7] = female chips, 50 µM bosentan infused from day 4 for 3 days
[8] = preventive: treated on day one after seeding, then 6 days without treatment, female vs male chips

## COc1ccccc1Oc1c(NS(=O)(=O)c2ccc(C(C)(C)C)cc2)nc(-c2ncccn2)nc1OCCO [bosentan]
PAH patients [1]
  responsiveness of female PAH patients compared with male patients, clinical data: more responsive; also recorded: responsive
[2]; [5]
  ColT1a deposition, compartment-specific analysis: lower in bosentan-treated female chips than in the male chips
  laminin deposition, compartment-specific analysis: lower in bosentan-treated female chips than in the male chips
[2]; chips with cells from female vs male PAH patients, 50 µM bosentan
  responsiveness of female chips compared with male chips: more responsive
[2]; [6]
  intimal deposition of ColT1a: decreases
  intimal deposition of laminin: decreases
[2]; [7]
  CYP1B1 expression in the medial layer: lowered
  migration of PAH-SMCs toward the luminal and intimal layers: slowed
  thickening of the medial layer: reduced
[2]; female vs male chips, counting QD705+ PAH-SMCs in intimal layers
  level of muscularization: lower level of muscularization
[2]; [8]
  expression of CYP1B1: declined more in the medial layer of the female chips than in the male chips
  presence of PAH-SMCs in the endothelial layer: lower in the female chips than in the male chips
PAH patients [3]
  responsiveness of female PAH patients: more responsive
CMs and PAH-ECs
  contractility of CMs: improved
  extent of CM hypertrophy: reduced
  hypertrophic markers: reduced
  hypertrophy-inducing agents: reduced

## CCCCC[C@H](O)/C=C/[C@@H]1[C@H]2C/C(=C/CCCC(=O)O)O[C@H]2C[C@H]1O [epoprostenol]
PAH patients [3]
  responsiveness of female PAH patients: more responsive

## CCCNS(=O)(=O)Nc1ncnc(OCCOc2ncc(Br)cn2)c1-c1ccc(Br)cc1 [macitentan]
PAH patients [3]
  responsiveness of female PAH patients: more responsive

## CC(C)N(CCCCOCC(=O)NS(C)(=O)=O)c1cnc(-c2ccccc2)c(-c2ccccc2)n1 [selexipag]
PAH patients [3]
  responsiveness of female PAH patients: more responsive

## CCCc1nn(C)c2c(=O)[nH]c(-c3cc(S(=O)(=O)N4CCN(C)CC4)ccc3OCC)nc12 [sildenafil]
PAH patients [3]; male PAH patients, 'we have also found'
  responsiveness of male PAH patients: more responsive
CMs and PAH-ECs
  contractility of CMs: improved
  extent of CM hypertrophy: reduced
  hypertrophic markers: reduced
  hypertrophy-inducing agents: reduced

## CCCCC[C@H](O)CC[C@@H]1[C@H]2Cc3cccc(OCC(=O)O)c3C[C@H]2C[C@H]1O [treprostinil]
PAH patients [3]
  responsiveness of female PAH patients: more responsive

## Estrogen
[4]; chips with PACs from female vs male PAH patients
  responsiveness of female chips compared with male chips: more responsive
[4]; chips with PACs of female patients vs male patients
  arterial remodeling: more extensive arterial remodeling
